The results in this text go back to ChEMBL document CHEMBL1125529, “NMDA antagonist activity of (+/-)-(2SR,4RS)-4-(1H-tetrazol-5-ylmethyl)piperidine-2-carboxylic acid resides with the (-)-2R,4S-isomer” (J Med Chem, 1992).

Assay [1] addresses Glutamate NMDA receptor. In words: Compound was tested for the antagonistic activity against depolarizations due to NMDA using rat cortical slice preparation. Format: functional.
Assay [2] concerns the target Glutamate NMDA receptor. The assay can be described thus: Ability to inhibit [3H]-CGS- 19755 binding to NMDA receptor. Format: protein-complex assay.

By IC50 is commonly meant the concentration needed to halve the response being measured. A lower IC50 goes with greater potency in that assay. On to `O=C(O)[C@H]1C[C@@H](Cc2nnn[nH]2)CCN1` (racemic), for which the IC50 against Glutamate NMDA receptor [1] is 4200 nM; on Glutamate NMDA receptor [2], 107 nM.

With `O=C(O)[C@H]1C[C@@H](Cc2nnn[nH]2)CCN1` (stereo in doubt), the figures for the IC50 on Glutamate NMDA receptor [1] and at Glutamate NMDA receptor [2] were 1900 nM and 67 nM, respectively.

`O=C(O)[C@H]1C[C@@H](Cc2nnn[nH]2)CCN1` (stereo in doubt; (+)-1): the IC50 was 39100 nM against Glutamate NMDA receptor [1] and 2390 nM at Glutamate NMDA receptor [2].
